melting point	SMILES
252 °C	Cc1c(-c2ccc(N)nc2)ncn1-c1nc(-c2ccc(C(F)(F)F)cc2)cc(C(F)(F)F)n1 [Example 154, 5-{5-Methyl-1-[4-trifluoromethyl-6-(4-trifluoromethyl-phenyl)-pyrimidin-2-yl]-1H-imidazol-4-yl}-pyridin-2-ylamine]
211 °C	CC(C)(C)NS(=O)(=O)c1cccc(-c2cc(-c3nc(-c4ccc(C(F)(F)F)cc4)cc(C(F)(F)F)n3)ccn2)c1 [Example 156, N-tert-Butyl-3-{4-[4-trifluoromethyl-6-(4-trifluoromethyl-phenyl)-pyrimidin-2-yl]-pyridin-2-yl}-benzenesulfonamide]
267 °C	NS(=O)(=O)c1cccc(-c2cccc(-c3nc(-c4ccc(C(F)(F)F)cc4)cc(C(F)(F)F)n3)c2)c1 [Example 157, 3′-[4-Trifluoromethyl-6-(4-trifluoromethyl-phenyl)-pyrimidin-2-yl]-biphenyl-3-sulfonic acid amide]
237 °C	NS(=O)(=O)c1cccc(-c2cc(-c3nc(-c4ccc(C(F)(F)F)cc4)cc(C(F)(F)F)n3)ccn2)c1 [Example 158, 3-{4-[4-Trifluoromethyl-6-(4-trifluoromethyl-phenyl)-pyrimidin-2-yl]-pyridin-2-yl}-benzenesulfonamide]
292 °C	NS(=O)(=O)c1ccc(-c2cn(-c3nc(-c4ccc(C(F)(F)F)cc4)cc(C(F)(F)F)n3)cn2)cc1 [Example 159, 4-{1-[4-Trifluoromethyl-6-(4-trifluoromethyl-phenyl)-pyrimidin-2-yl]-1H-imidazol-4-yl}-benzenesulfonamide]
198 °C	NS(=O)(=O)c1cccc(-c2cn(-c3nc(-c4ccc(C(F)(F)F)cc4)cc(C(F)(F)F)n3)cn2)c1 [Example 160, 3-{1-[4-Trifluoromethyl-6-(4-trifluoromethyl-phenyl)-pyrimidin-2-yl]-1H-imidazol-4-yl}-benzenesulfonamide]
204 °C	NS(=O)(=O)c1ccc(-c2cccc(-c3nc(-c4ccc(C(F)(F)F)cc4)cc(C(F)(F)F)n3)c2)s1 [Example 161, 5-{3-[4-Trifluoromethyl-6-(4-trifluoromethyl-phenyl)-pyrimidin-2-yl]-phenyl}-thiophene-2-sulfonic acid amide]
237 °C	CC(C)(C)NS(=O)(=O)c1ccc(-c2cc(-c3nc(-c4ccc(C(F)(F)F)cc4)cc(C(F)(F)F)n3)ccn2)s1 [Example 162, 5-{4-[4-Trifluoromethyl-6-(4-trifluoromethyl-phenyl)-pyrimidin-2-yl]-pyridin-2-yl}-thiophene-2-sulfonic acid tert-butylamide]
281 °C	NS(=O)(=O)c1ccc(-c2cn(-c3nc(-c4ccc(C(F)(F)F)cc4)cc(C(F)(F)F)n3)cn2)s1 [Example 163, 5-{1-[4-Trifluoromethyl-6-(4-trifluoromethyl-phenyl)-pyrimidin-2-yl]-1H-imidazol-4-yl}-thiophene-2-sulfonic acid amide]
262 °C	NS(=O)(=O)c1ccc(-c2cc(-c3nc(-c4ccc(C(F)(F)F)cc4)cc(C(F)(F)F)n3)ccn2)s1 [Example 164, 5-{4-[4-Trifluoromethyl-6-(4-trifluoromethyl-phenyl)-pyrimidin-2-yl]-pyridin-2-yl}-thiophene-2-sulfonic acid amide]
163 °C	Cc1cc(-c2ccc(C(F)(F)F)cc2)nc(-c2cccc(-c3cccc(S(=O)(=O)NC(C)(C)C)c3)c2)n1 [Example 165, 3′-[4-Methyl-6-(4-trifluoromethyl-phenyl)-pyrimidin-2-yl]-biphenyl-3-sulfonic acid tert-butylamide]
221 °C	Cc1cc(-c2ccc(Cl)cc2)nc(-c2cccc(-c3cccc(S(N)(=O)=O)c3)c2)n1 [Example 166, 3′-[4-(4-Chloro-phenyl)-6-methyl-pyrimidin-2-yl]-biphenyl-3-sulfonic acid amide]
218.5 °C	Cc1cc(-c2ccc(C(F)(F)F)cc2)nc(-c2ccnc(-c3cccc(S(N)(=O)=O)c3)c2)n1 [Example 168, 3-{4-[4-Methyl-6-(4-trifluoromethyl-phenyl)-pyrimidin-2-yl]-pyridin-2-yl}-benzenesulfonamide]
197.5 °C	CC(C)(C)NS(=O)(=O)c1ccc(-c2cccc(-c3nc(-c4ccc(Cl)cc4)cc(C(F)(F)F)n3)c2)s1 [Example 169, 5-{3-[4-(4-Chloro-phenyl)-6-trifluoromethyl-pyrimidin-2-yl]-phenyl}-thiophene-2-sulfonic acid tert-butylamide]
290 °C	NS(=O)(=O)c1ccc(-c2cc(-c3nc(-c4ccc(Cl)cc4)cc(C(F)(F)F)n3)ccn2)s1 [Example 170, 5-{4-[4-(4-Chloro-phenyl)-6-trifluoromethyl-pyrimidin-2-yl]-pyridin-2-yl}-thiophene-2-sulfonic acid amide]
284 °C	NS(=O)(=O)c1ccc(-c2cn(-c3nc(-c4ccc(Cl)cc4)cc(C(F)(F)F)n3)cn2)s1 [Example 171, 5-{1-[4-(4-Chloro-phenyl)-6-trifluoromethyl-pyrimidin-2-yl]-1H-imidazol-4-yl}-thiophene-2-sulfonic acid amide]
225 °C	Cc1cc(-c2ccc(C(F)(F)F)cc2)nc(-c2cccc(-c3ccc(S(N)(=O)=O)s3)c2)n1 [Example 172, 5-{3-[4-Methyl-6-(4-trifluoromethyl-phenyl)-pyrimidin-2-yl]-phenyl}-thiophene-2-sulfonic acid amide]

melting point	SMILES
227 °C	Cc1cc(-c2ccc(Cl)cc2)nc(-c2cccc(-c3ccc(S(N)(=O)=O)s3)c2)n1 [Example 173, 5-{3-[4-(4-Chloro-phenyl)-6-methyl-pyrimidin-2-yl]-phenyl}-thiophene-2-sulfonic acid amide]
226 °C	NS(=O)(=O)c1ccc(-c2cccc(-c3nc(-c4ccc(Cl)cc4)cc(C(F)(F)F)n3)c2)s1 [Example 174, 5-{3-[4-(4-Chloro-phenyl)-6-trifluoromethyl-pyrimidin-2-yl]-phenyl}-thiophene-2-sulfonic acid amide]
324 °C	NS(=O)(=O)c1ccc(-c2cn(-c3nc(-c4ccc(Cl)cc4)cc(C(F)(F)F)n3)cn2)cc1 [Example 175, 4-{1-[4-(4-Chloro-phenyl)-6-trifluoromethyl-pyrimidin-2-yl]-1H-imidazol-4-yl}-benzenesulfonamide]
275 °C	Cc1cc(-c2ccc(Cl)cc2)nc(-n2cnc(-c3cccc(S(N)(=O)=O)c3)c2)n1 [Example 176, 3-{1-[4-(4-Chloro-phenyl)-6-methyl-pyrimidin-2-yl]-1H-imidazol-4-yl}-benzenesulfonamide]
225 °C	NS(=O)(=O)c1cccc(-c2cn(-c3nc(-c4ccc(Cl)cc4)cc(C(F)(F)F)n3)cn2)c1 [Example 177, 3-{1-[4-(4-Chloro-phenyl)-6-trifluoromethyl-pyrimidin-2-yl]-1H-imidazol-4-yl}-benzenesulfonamide]
165 °C	NS(=O)(=O)c1cccc(-c2cccc(-c3nc(-c4ccc(Cl)cc4)cc(C(F)(F)F)n3)c2)c1 [Example 178, 3′-[4-(4-Chloro-phenyl)-6-trifluoromethyl-pyrimidin-2-yl]-biphenyl-3-sulfonic acid amide]
182 °C	NS(=O)(=O)c1cccc(-c2cc(-c3nc(-c4ccc(Cl)cc4)cc(C(F)(F)F)n3)ccn2)c1 [Example 179, 3-{4-[4-(4-Chloro-phenyl)-6-trifluoromethyl-pyrimidin-2-yl]-pyridin-2-yl}-benzenesulfonamide]
312 °C	Cc1cc(-c2ccc(Cl)cc2)nc(-n2cnc(-c3ccc(S(N)(=O)=O)cc3)c2)n1 [Example 180, 4-{1-[4-(4-Chloro-phenyl)-6-methyl-pyrimidin-2-yl]-1H-imidazol-4-yl}-benzenesulfonamide]
264 °C	NS(=O)(=O)c1cnc(-c2cn(-c3nc(-c4ccc(C(F)(F)F)cc4)cc(C(F)(F)F)n3)cn2)s1 [Example 181, 2-{1-[4-Trifluoromethyl-6-(4-trifluoromethyl-phenyl)-pyrimidin-2-yl]-1H-imidazol-4-yl}-thiazole-5-sulfonic acid amide]
263 °C	NS(=O)(=O)c1cnc(-c2cn(-c3nc(-c4ccc(Cl)cc4)cc(C(F)(F)F)n3)cn2)s1 [Example 182, 2-{1-[4-(4-Chloro-phenyl)-6-trifluoromethyl-pyrimidin-2-yl]-1H-imidazol-4-yl}-thiazole-5-sulfonic acid amide]
323 °C	Cc1cc(-c2ccc(C(F)(F)F)cc2)nc(-n2cnc(-c3ccc(S(N)(=O)=O)cc3)c2)n1 [Example 183, 4-{1-[4-Methyl-6-(4-trifluoromethyl-phenyl)-pyrimidin-2-yl]-1H-imidazol-4-yl}-benzenesulfonamide]
186 °C	Cc1cc(-c2ccc(C(F)(F)F)cc2)nc(-n2cnc(-c3cccc(S(N)(=O)=O)c3)c2)n1 [Example 184, 3-{1-[4-Methyl-6-(4-trifluoromethyl-phenyl)-pyrimidin-2-yl]-1H-imidazol-4-yl}-benzenesulfonamide]
248 °C	Nc1ccc(-c2cn(-c3nc(-c4cccc(Cl)c4)cc(C(F)(F)F)n3)cn2)cn1 [Example 186, 5-{1-[4-(3-Chloro-phenyl)-6-trifluoromethyl-pyrimidin-2-yl]-1H-imidazol-4-yl}-pyridin-2-ylamine]
280 °C	NS(=O)(=O)c1ccc(-c2cn(-c3nc(-c4cccc(Cl)c4)cc(C(F)(F)F)n3)cn2)s1 [Example 188, 5-{1-[4-(3-Chloro-phenyl)-6-trifluoromethyl-pyrimidin-2-yl]-1H-imidazol-4-yl}-thiophene-2-sulfonic acid amide]
224 °C	Cc1cc(-c2ccc(Cl)cc2)nc(-c2ccnc(-c3cccc(S(N)(=O)=O)c3)c2)n1 [Example 189, 3-{4-[4-(4-Chloro-phenyl)-6-methyl-pyrimidin-2-yl]-pyridin-2-yl}-benzenesulfonamide]
281 °C	Cc1cc(-c2ccc(Cl)cc2)nc(-n2cnc(-c3ccc(S(N)(=O)=O)s3)c2)n1 [Example 190, 5-{1-[4-(4-Chloro-phenyl)-6-methyl-pyrimidin-2-yl]-1H-imidazol-4-yl}-thiophene-2-sulfonic acid amide]
